Test results taken from ChEMBL document CHEMBL5214990, “Novel Aryl Alkamidazole Derivatives as Multifunctional Antifungal Inhibitors: Design, Synthesis, and Biological Evaluation” (J Med Chem, 2022).
Active and inactive are the calls of the source. No cut-off for these calls is given here.

Key:
Candida albicans [1] = experiment: Increase in intracellular ROS level in Candida albicans assessed as fold increase in fluorescence intensity measured after 12 hrs by fluorescence microscopic analysis relative to control; assay type: functional
Cryptococcus neoformans = experiment: Increase in intracellular ROS level in Cryptococcus neoformans assessed as fold increase in fluorescence intensity measured after 12 hrs by fluorescence microscopic analysis relative to control; assay type: functional
[2] = Drug uptake in Candida albicans ATCC SC5314 assessed as increase in red and green fluorescence intensity measured after 10 hrs by PI/Hoechst […] staining based fluorescence microscopy; assay type: ADME
[3] = Toxicity in mouse infected with Candida albicans assessed as morphological changes in liver at 20 mg/kg, ip administered on days 2,4,6,8,10,12 and measured on day 14 by hematoxyin-eosin staining based analysis; assay type: organism-based; settings: in vivo, 312 h, time 13 day
Mus musculus = experiment: Immunomodulatory activity in mouse infected with Candida albicans assessed as increase in expression intensity of CD3+ T cells in spleen at 20 mg/kg, ip administered on days 2,4,6,8,10,12 and measured on day 14 by immunohistochemical staining analysis relative to fluconazole; assay type: functional, T-cell; settings: time 13 day
Candida albicans [4] = experiment: Induction of morphological changes in Candida albicans ATCC SC5314 assessed as disintegration of fungal cell membrane and cell wall measured after 96 hrs by transmission electron microscopy; assay type: functional, organism-based
Candida albicans [5] = experiment: Induction of morphological changes in Candida albicans ATCC SC5314 assessed as exudation of fungal cell contents to the external region measured after 96 hrs by transmission electron microscopy; assay type: functional, organism-based
Candida albicans [6] = experiment: Induction of morphological changes in Candida albicans ATCC SC5314 assessed as reduction in fungal cell thickness measured after 48 to 72 hrs by transmission electron microscopy; assay type: functional, organism-based; settings: time 48-72 hrs
Candida albicans [7] = experiment: Induction of morphological changes in Candida albicans ATCC SC5314 assessed as fungal cells with edema, cavitation, nuclear enrichment, accumulation of low density granular materials measured after 48 to 72 hrs by transmission electron microscopy; assay type: functional, organism-based; settings: time 48-72 hrs
Candida albicans [8] = experiment: Induction of morphological changes in Candida albicans ATCC SC5314 assessed as rupturing of marginal regions measured after 96 hrs by transmission electron microscopy; assay type: functional, organism-based
Candida albicans [9] = experiment: Induction of morphological changes in Candida albicans ATCC SC5314 assessed as fungal cells with irregular shrunken characteristics measured after 48 to 72 hrs by transmission electron microscopy; assay type: functional, organism-based; settings: time 48-72 hrs

## OC(Cn1cncn1)(Cn1cncn1)c1ccc(F)cc1F [FLUCONAZOLE]
Candida albicans [1]
  Activity: Active
Cryptococcus neoformans
  Activity: Active

## C[C@H](C(=O)N(C)CC(O)(Cn1ccnc1)c1ccc(Cl)cc1)c1ccc(-c2ccccc2)c(F)c1 (some centres undefined)
[2]
  Drug uptake: Active
[3]
  Activity: Non-Toxic
Mus musculus
  fold change (FC): 2.12

## C[C@H](C(=O)N(C)CC(O)(Cn1ccnc1)c1ccc(Cl)cc1Cl)c1cccc(C(=O)c2ccccc2)c1 (some centres undefined)
Candida albicans [4]
  Activity: Active
Candida albicans [5]
  Activity: Active
Candida albicans [6]
  Activity: Active
[2]
  Drug uptake: Active
[3]
  Activity: Non-Toxic
Mus musculus
  fold change (FC): 2.12
Candida albicans [7]
  Activity: Active
Candida albicans [8]
  Activity: Active
Candida albicans [9]
  Activity: Active
